Source: paper PMC6518372, “An enzymatically stable GIP/xenin hybrid peptide restores GIP sensitivity, enhances beta cell function and improves glucose homeostasis in high-fat-fed mice” (Diabetologia, 2016)
Where a SMILES comes first, the peptide text is derived from it. [ ]: non-standard residue; d: D form.

Columns and labels:
[1] = molecular target: purified porcine DPP-4 (Sus scrofa, UniProt P22411); assay: DPP-4 degradation / in vitro DPP-4 half-life; conditions: 20 μg peptide, 5 mU purified DPP-4, up to 12 h, HPLC
Chain of purified porcine DPP-4 (P22411 whole entry): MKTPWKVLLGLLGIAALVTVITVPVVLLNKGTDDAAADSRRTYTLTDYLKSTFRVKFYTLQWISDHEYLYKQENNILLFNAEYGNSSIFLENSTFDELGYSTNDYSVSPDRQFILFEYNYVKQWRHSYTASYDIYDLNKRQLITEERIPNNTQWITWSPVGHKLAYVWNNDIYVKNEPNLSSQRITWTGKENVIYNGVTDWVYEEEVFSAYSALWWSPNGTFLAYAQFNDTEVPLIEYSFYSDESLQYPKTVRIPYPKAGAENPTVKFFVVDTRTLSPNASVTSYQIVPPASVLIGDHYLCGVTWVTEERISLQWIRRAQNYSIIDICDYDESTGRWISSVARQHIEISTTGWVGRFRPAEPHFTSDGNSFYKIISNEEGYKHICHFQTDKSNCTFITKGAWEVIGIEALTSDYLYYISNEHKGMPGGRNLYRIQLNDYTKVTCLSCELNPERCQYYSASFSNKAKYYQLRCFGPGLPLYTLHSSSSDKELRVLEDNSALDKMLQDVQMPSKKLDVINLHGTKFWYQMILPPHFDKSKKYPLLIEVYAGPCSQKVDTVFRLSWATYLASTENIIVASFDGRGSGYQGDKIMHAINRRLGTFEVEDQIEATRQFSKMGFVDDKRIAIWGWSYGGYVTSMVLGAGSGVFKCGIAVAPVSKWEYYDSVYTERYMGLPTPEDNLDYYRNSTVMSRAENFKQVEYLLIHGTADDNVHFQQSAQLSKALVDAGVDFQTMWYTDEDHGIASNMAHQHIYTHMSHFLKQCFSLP
Protocol: Peptide (20 μg) DPP-4 degradation profiles (5 μl purified DPP-4, 5 mU; Sigma-Aldrich, UK) were assessed as described previously.
For calculation of experimental molecular masses, peptide samples (1 µg) were mixed with α-cyano-4-hydroxycinnamic acid (1 µg) and applied to a Voyager-DE BioSpectrometry Workstation and mass-to-charge (m/z) ratio verses peak intensity recorded by MALDI-TOF mass spectrometry. DPP-4 half-life was assessed by incubating peptides (37°C in 50 mmol/L TEA-HCl; pH 7.8) with 5 mU purified porcine DPP-4 for 0, 1, 2, 4, 8 and 12 h. Degradation profiles were obtained using rp-HPLC analysis and HPLC peak area data used to calculate percentage intact peptide remaining at each time point.

[2] = tested on: lean control mice; assay: Acute glucose-lowering and insulin-releasing effects in lean mice; type: in vivo, mouse; conditions: 25 nmol/kg i.p. with glucose 18 mmol/kg, non-fasted lean mice, vs glucose alone
Protocol: Specific information on acute feeding, glucose homeostasis and insulin-secretory studies is given in ESM Methods. To assess the impact of GIP and neurotensin receptor activation on (DAla^2)GIP/xenin-8-Gln-induced glucose-lowering and insulin-secretory actions in mice, (DAla^2)GIP/xenin-8-Gln was administered by i.p. injection (25 nmol/kg body weight) in combination with glucose (18 mmol/kg) in the absence and presence of GIP(6-30)Cex-K^40[Pal] and SR142948A (both at 25 nmol/kg), and glucose and insulin were measured as described above. In a final series of experiments, test peptides (25 nmol/kg) or saline vehicle (0.9% wt/vol. NaCl) were injected 4 h before a glucose load (18 mmol/kg) in non-fasted mice and blood glucose and plasma insulin measured as above. […]
(§1) Animals Acute animal studies were conducted in male NIH Swiss mice (12-14 weeks old, Harlan Ltd, UK) maintained on a standard rodent maintenance diet (10% fat, 30% protein and 60% carbohydrate, Trouw Nutrition, UK). Prior to commencement of longer term studies, all animals, except lean controls that continued on rodent maintenance diet, were maintained on a high-fat diet (45% fat, 35% carbohydrate and 20% protein, Special Diet Services, UK) for 12 weeks. This diet […]
(§2) individually in an air-conditioned room at 22 ± 2 °C with a 12 h light:12 h dark cycle and had free access to food and water. Animal experiments were carried out in accordance with the UK Animals (Scientific Procedures) Act 1986.
(§3) Acute in vivo effects in lean mice For food intake studies, fasted (18 h) mice were given intraperitoneal (i.p) injections of peptides at a dose of 25, 100 or 250 nmol/kg bw. Mice were then allowed free access to normal chow for 180 mins and cumulative food intake measured. For glucose homeostasis and […]

[3] = tested on: lean control mice; assay: Persistent glucose-lowering and insulin-releasing effects, peptide 4 h before glucose load; type: in vivo, mouse; conditions: 25 nmol/kg injected 4 h before i.p. glucose load 18 mmol/kg, non-fasted lean mice, vs saline
Protocol: Specific information on acute feeding, glucose homeostasis and insulin-secretory studies is given in ESM Methods. To assess the impact of GIP and neurotensin receptor activation on (DAla^2)GIP/xenin-8-Gln-induced glucose-lowering and insulin-secretory actions in mice, (DAla^2)GIP/xenin-8-Gln was administered by i.p. injection (25 nmol/kg body weight) in combination with glucose (18 mmol/kg) in the absence and presence of GIP(6-30)Cex-K^40[Pal] and SR142948A (both at 25 nmol/kg), and glucose and insulin were measured as described above. In a final series of experiments, test peptides (25 nmol/kg) or saline vehicle (0.9% wt/vol. NaCl) were injected 4 h before a glucose load (18 mmol/kg) in non-fasted mice and blood glucose and plasma insulin measured as above.

[4] = tested on: BRIN-BD11 cells; assay: In vitro insulin secretion from BRIN-BD11 cells; type: cell-based, rat; conditions: peptide 10^−6 mol/l, antagonist 10^−6 mol/l, 5.6 mmol/l glucose, 20 min
Protocol: (§4) BRIN-BD11 cells were used to assess the insulin-releasing activity of test peptides, as described previously. This hybrid cell line (ECACC 10033003) was originally generated in-house by electrofusion of a primary culture of New England Deaconess Hospital (NEDH) rat pancreatic islets with RINm5F (a cell line derived from an NEDH rat insulinoma), and has been mycoplasma eradicated. For details of experimental conditions please see ESM Methods. Insulin was measured by radioimmunoassay. We assessed the impact of GIP and neurotensin receptors on (DAla^2)GIP/xenin-8-Gln-induced insulin secretion in BRIN-BD11 cells. Cells were incubated in 5.6 mmol/l glucose with (DAla^2)GIP/xenin-8-Gln (10^−6 mol/l) alone or in combination with the GIP receptor antagonist GIP(6-30)Cex-K^40[Pal] [32] (where Pal is palmitate) or the neurotensin receptor antagonist SR142948A (Sigma, Poole, UK), and insulin secretion determined as described above. In addition, to determine mechanisms, intracellular Ca^2+ was also measured in BRIN-BD11 cells following treatment with test peptides (10^−6 mol/l), using a Flexstation scanning fluorometer (FLIPR Calcium 5 assay kit; Molecular Devices, Sunnyvale, CA, USA), as described previously.
In vitro insulin release studies Cells were seeded at a density of 150,000 cells/well in 24-well plates (Nunc, Roskilde, Denmark) and allowed to attach overnight at 37 °C. Culture medium was removed and cells were pre-incubated in Krebs–Ringer bicarbonate buffer (containing 0.5% (w/v) BSA, pH 7.4) supplemented with 1.1 mmol/l glucose for 40 min at 37 °C. Following the pre-incubation, experiments (n=8) were performed in presence of glucose (5.6 or 16.7 mmol/l) with a […]
incubations, aliquots of assay buffer were collected from each well and stored at -20 °C prior to […]
Acute in vivo effects in lean mice For food intake studies, fasted (18 h) mice were given intraperitoneal (i.p) injections of peptides at a dose of 25, 100 or 250 nmol/kg bw. Mice were then allowed free access to normal chow for 180 mins and cumulative food intake measured. […]

[5] = tested on: BRIN-BD11 cells; assay: Intracellular Ca2+ in BRIN-BD11 cells (FLIPR Calcium 5); type: cell-based, rat; conditions: peptide 10^−6 mol/l, 5.6 mmol/l glucose, 5 min, AUC 0–300 s
Protocol: as §4

[6] = tested on: lean control mice; assay: Acute cumulative food intake in lean mice; type: in vivo, mouse; conditions: 250 nmol/kg i.p., 18 h fasted lean mice, 120 min post injection, vs saline
Protocol: as §1, §2, §3

CC[C@H](C)[C@H](NC(=O)[C@H](CO)NC(=O)[C@H](Cc1ccc(O)cc1)NC(=O)[C@H](CC(=O)O)NC(=O)[C@H](CO)NC(=O)[C@@H](NC(=O)[C@H](Cc1ccccc1)NC(=O)[C@@H](NC(=O)CNC(=O)[C@H](CCC(=O)O)NC(=O)[C@@H](C)NC(=O)[C@@H](N)Cc1ccc(O)cc1)[C@@H](C)O)[C@@H](C)CC)C(=O)N[C@@H](C)C(=O)N[C@@H](CCSC)C(=O)N[C@@H](Cc1c[nH]cn1)C(=O)N1CCC[C@H]1C(=O)N[C@@H](CCC(N)=O)C(=O)N[C@@H](CCC(N)=O)C(=O)N1CCC[C@H]1C(=O)N[C@@H](Cc1c[nH]c2ccccc12)C(=O)N[C@H](C(=O)N[C@@H](CC(C)C)C(=O)O)[C@@H](C)CC [(DAla^2)GIP/xenin-8-Gln] (H-Y[dA]EGTFISDYSIAMHPQQPWIL-OH)
Stability when incubated in the presence of DPP-4 [1]: remained fully intact

CC[C@H](C)[C@H](NC(=O)[C@H](Cc1c[nH]c2ccccc12)NC(=O)[C@@H]1CCCN1C(=O)[C@H](CCC(N)=O)NC(=O)[C@H](CCC(N)=O)NC(=O)[C@@H]1CCCN1C(=O)[C@@H](N)Cc1c[nH]cn1)C(=O)N[C@@H](CC(C)C)C(=O)O [xenin-8-Gln] (H-HPQQPWIL-OH)
Blood glucose ([2]; 30 min post injection): significantly (p < 0.05) lowered blood glucose values
Overall AUC blood glucose [2]: significantly (p < 0.05) decreased overall AUC blood glucose values
Overall AUC for blood glucose after glucose challenge [3]: devoid of glucose-lowering or insulin-releasing effects
Plasma insulin AUC after glucose challenge [3]: devoid of glucose-lowering or insulin-releasing effects
Peptide-mediated insulin secretion in presence of neurotensin receptor antagonist SR142948A [4]: similar, but less prominent, effect
Effect on intracellular Ca^2+ concentrations [5]: Neither, (DAla^2)GIP, xenin-8-Gln nor (DAla^2)GIP/xenin-8-Gln had any effect
Cumulative food intake [6]: significant (p < 0.05) reductions in food intake
